Assay [1] deals with T1, human 5-HT1A receptor (Homo sapiens, UniProt P08908).
T1 construct: expressed in transfected cells; host or cells: Chinese hamster ovary cells (5-HT1A.CHO)
T1 sequence (P08908 1-422): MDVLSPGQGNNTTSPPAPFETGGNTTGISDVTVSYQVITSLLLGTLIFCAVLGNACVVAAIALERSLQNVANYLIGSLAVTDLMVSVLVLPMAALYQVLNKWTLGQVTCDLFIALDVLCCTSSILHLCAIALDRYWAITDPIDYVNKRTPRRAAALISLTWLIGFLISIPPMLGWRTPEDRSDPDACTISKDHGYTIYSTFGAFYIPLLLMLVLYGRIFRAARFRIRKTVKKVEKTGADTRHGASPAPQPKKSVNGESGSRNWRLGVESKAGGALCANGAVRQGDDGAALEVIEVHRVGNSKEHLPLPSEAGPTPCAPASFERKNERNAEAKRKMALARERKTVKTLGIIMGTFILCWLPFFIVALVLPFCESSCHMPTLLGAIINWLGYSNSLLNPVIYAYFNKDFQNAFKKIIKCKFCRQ
The assay can be described thus: human 5-HT1A receptor binding, [3H]8-OH-DPAT radioligand, membranes of 5-HT1A.CHO cells. To be noted: for inhibition at 1 µM: 1 uM compound, value in parentheses, read-out: 5-HT1A % inh @ 1 uM. As for the experimental part: (§1) The PCR cloning of the human 5-HT1A receptor subtype from a human genomic library has been described previously by Chanda et al., Mol. Pharmacol., 43:516 (1993). A stable Chinese hamster ovary cell line expressing the human 5-HT1A receptor subtype (5-HT1A.CHO cells) was employed throughout this study. Cells were maintained in DMEM supplemented with 10% fetal calf serum, non-essential amino acids and penicillin/streptomycin.
Cells were grown to 95-100% confluency as a monolayer before membranes were harvested for binding studies. Cells were gently scraped from the culture plates, transferred to centrifuge tubes, and washed twice by centrifugation (2000 rpm for 10 min., 4° C.) in buffer (50 mM Tris; pH 7.5). The resulting pellets were aliquoted and maintained at -80° C. On the day of assay, the cells were thawed on ice, and resuspended in buffer. Studies were conducted using [^3 H]8-OH-DPAT as the radioligand. The binding assay was performed in 96 well microtiter plates in a final total volume of 250 μL of buffer. Comparison experiments were performed by using 7 concentrations of unlabelled drug and a final ligand concentration of 1.5 nM. Non-specific binding was determined in the presence of 10 μM 5HT. Saturation analysis was conducted by using [^3 H]8-OH-DPAT at concentrations ranging from 0.3-30 nM. Following a 30 minute incubation at room temperature, the reaction was terminated by the addition of ice cold buffer and rapid filtration using a M-96 Brandel Cell Harvester (Gaithersburg, Md.) through a GF/B filter presoaked for 30 minutes in 0.5% polyethyleneimine.

The target of assay [2] is T2, 5-HT1A cloned receptor (Homo sapiens, UniProt P08908).
T2 construct: expressed in transfected cells; host or cells: Chinese hamster ovary cells (5-HT1A.CHO)
T2 sequence (P08908 1-422): T1 sequence (P08908 1-422)
Nature of the assay: [35S]-GTPγS binding assay, 5-HT1A cloned receptor membrane fragments. The class given is biochemical. As to conditions: maximum agonist response defined by excess 8-OH-DPAT; value in parentheses; read-out: GTPgS % EMax.
Description: as §1
The [^35 S]-GTPγS binding assay was similar to that used by Lazareno and Birdsall, Br. J. Pharmacol. 109:1120 (1993). Briefly, 5-HT1A cloned receptor membrane fragments (as used for 5-HT1A receptor binding assays) were stored at -70° C. When needed, membranes were rapidly thawed, centrifuged at 40,000×g for 10 minutes and resuspended at 4° C. for 10 minutes in assay buffer (25 mM HEPES, 3 mM MgCl2, 100 mM NaCl, 1 mM EDTA, 10 uM GDP, […], pH 8.0). These membranes were then incubated for 30 min at 30° C. with [^35 S]GTPgS (1 nM) in the presence of vehicle, test compound (one to eight concentrations), or excess 8-OH-DPAT to define maximum agronist response. All reactions were terminated by the addition of ice cold Tris buffer followed by rapid filtration using a Tom Tech® filtration device to separate bound from free [^35 S]GTPgS. Agonists produced an increase in the amount of [^35 S]GTPgS bound whereas antagonists produced no increase in binding. Bound radioactivity was counted and analyzed as above.
For orientation: Binding of GTPγS marks nucleotide exchange on a G protein.

Assay [3] addresses T3, serotonin transporter (Rattus norvegicus, UniProt P31652).
T3 construct: frontal cortical membranes prepared from male Sprague-Dawley rats; from tissue; host or cells: rat (male Sprague-Dawley) frontal cortex membranes
The assay can be described thus: affinity for the serotonin transporter (ST), 3H-paroxetine, rat frontal cortical membranes. The class given is binding, rat (male Sprague-Dawley). To be noted: 3H-paroxetine 0.1 nM, 60 min, 25° C. As for the experimental part:
A protocol similar to that used by Cheetham et al., Neuropharmacol., 32:737 (1993) was used to determine the affinity of compounds for the serotonin transporter. Briefly, frontal cortical membranes prepared from male Sprague-Dawley rats were incubated with ^3 H-parsoxetinc (0.1 nM) for 60 min at 25° C. All tubes also contained either vehicle, test compound (one to eight concentrations), or a saturating concentration of fluoxetine (10 μM) to define […]. All reactions were terminated by the addition of ice cold Tris buffer followed by rapid filtration using a Tom Tech filtration device to separate bound from free ^3 H-paroxetine. Bound radioactivity was quantitated using a Wallac 1205 Beta Plate® counter. Nonlinear regression analysis was used to determine IC50 values which were converted to Ki values using the method set forth in Cheng and Prusoff, Biochem. Pharmacol., 22:3099 (1973) ([…].

[4] abbreviates: [3H]8-OH-DPAT, 1.5 nM, 5-HT1A.CHO membranes, read-out: 5-HT1A Ki.

Like-named read-outs stand apart in the source and are kept apart here.

The source of these data is US6245780A, “Tetrahydroisoquinolinyl-indole derivatives for the treatment of depression” (American Home Products Corp, priority 2000, dated 2001).

A word on the Ki: it is a measure of affinity in units of concentration, obtained from inhibition or displacement. The term Emax denotes the maximal effect, on the per cent scale that the assay sets.

T3 sequence (P31652 whole entry): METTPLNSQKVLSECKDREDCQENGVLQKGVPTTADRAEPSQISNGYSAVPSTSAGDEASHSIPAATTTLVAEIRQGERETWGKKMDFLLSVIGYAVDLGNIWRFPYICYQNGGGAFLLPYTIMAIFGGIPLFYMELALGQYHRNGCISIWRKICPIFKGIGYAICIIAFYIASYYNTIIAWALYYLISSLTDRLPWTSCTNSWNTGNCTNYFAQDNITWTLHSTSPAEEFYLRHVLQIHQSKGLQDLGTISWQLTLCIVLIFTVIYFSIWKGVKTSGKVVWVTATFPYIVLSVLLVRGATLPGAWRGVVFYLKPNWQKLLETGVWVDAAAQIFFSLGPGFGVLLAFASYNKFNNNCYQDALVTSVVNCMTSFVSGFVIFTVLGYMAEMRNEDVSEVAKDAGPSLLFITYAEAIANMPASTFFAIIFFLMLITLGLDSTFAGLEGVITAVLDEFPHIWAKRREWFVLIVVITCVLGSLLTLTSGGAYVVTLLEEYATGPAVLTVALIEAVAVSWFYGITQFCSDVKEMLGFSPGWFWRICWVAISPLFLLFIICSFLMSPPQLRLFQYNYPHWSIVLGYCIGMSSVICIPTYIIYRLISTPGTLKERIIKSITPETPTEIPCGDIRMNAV

For `COc1cccc2c1CN([C@H]1CC[C@H](c3c[nH]c4ccc(C#N)cc43)CC1)CC2` [Example 2b, 3-[(1,4-trans)-4-(8-Methoxy-3,4-dihydro-1H-isoquinolin-2-yl)-cyclohexyl]-1H-indole-5-carbonitrile], the inhibition at 1 µM in assay [1] ([3H]8-OH-DPAT) worked out at 46%.
Take `N#Cc1ccc2[nH]cc([C@H]3CC[C@H](N4CCc5ccccc5C4)CC3)c2c1` [Example 5b, 3-[(1,4-trans)-4-(3,4-Dihydro-1H-isoquinolin-2-yl)-cyclohexyl]-1H-indole-carbonitrile]: the inhibition at 1 µM in assay [1] ([3H]8-OH-DPAT) turned out to be 10%.
Take `COc1ccc2c(c1)CN([C@H]1CC[C@@H](c3c[nH]c4ccc(C#N)cc43)CC1)CC2` [Example 1a, 3-[(1,4-cis)-4-(7-Methoxy-3,4-dihydro-1H-isoquinolin-2-yl)-cyclohexyl]-1H-indole-5-carbonitrile]: in assay [1] ([3H]8-OH-DPAT), the inhibition at 1 µM turned out to be 26%.
Regarding `COc1cccc2c1CCN(CCCc1c[nH]c3ccc(F)cc13)C2` [Example 6, 2-[3-(5-Fluoro-1H-indol-3-yl)-propyl]-5-methoxy-1,2,3,4-tetrahydroisoquinoline], the values for the Ki in assay [1] (setting [4]) and in assay [3] were 243 nM and 1.9 nM, respectively. Besides, the Emax in assay [2] worked out at 23%.
`COc1ccc2c(c1)CCN([C@H]1CC[C@H](c3c[nH]c4ccc(C#N)cc43)CC1)C2` [Example 3b, 3-[(1,4-trans)-4-(6-Methoxy-3,4-dihydro-1H-isoquinolin-2-yl)-cyclohexyl]-1H-indole-5-carbonitrile] yielded an inhibition constant Ki in assay [1] of 300 nM. Besides, the Emax in assay [2] is 0%.
In the case of `N#Cc1ccc2[nH]cc([C@H]3CC[C@@H](N4CCc5ccccc5C4)CC3)c2c1` [Example 5a, 3-[(1,4-cis)-4-(3,4-Dihydro-1H-isoquinolin-2-yl)-cyclohexyl]-1H-indole-5-carbonitrile], the inhibition at 1 µM in assay [1] ([3H]8-OH-DPAT) was 0%. In addition, in assay [3], the Ki was found to be 1.3 nM.
For `Fc1ccc2[nH]cc(CCCN3CCc4ccccc4C3)c2c1` [Example 8, 2-[3-(5-Fluoro-1H-indol-3-yl)-propyl]-1,2,3,4-tertrahydroisoquinoline], the inhibition at 1 µM in assay [1] ([3H]8-OH-DPAT) amounted to 48%. Further, the Emax in assay [2] worked out at 13%. Besides, in assay [3], the Ki turned out to be 4.85 nM.
`COc1cccc2c1CCN([C@H]1CC[C@@H](c3c[nH]c4ccc(C#N)cc43)CC1)C2` [Example 4a, 3-[(1,4-cis)-4-(5-Methoxy-3,4-dihydro-1H-isoquinolin-2-yl)-cyclohexyl]-1H-indole-5-carbonitrile]: the inhibition at 1 µM in assay [1] ([3H]8-OH-DPAT) was determined as 7%. For the same compound, the Emax in assay [2] was determined as 12%.
Regarding `COc1ccc2c(c1)CCN(CCCc1c[nH]c3ccc(F)cc13)C2` [Example 7, 2-[3-(5-Fluoro-1H-indol-3-yl)-propyl]-6-methoxy-1,2,3,4-tetrahydroisoquinoline], the Ki in assay [1] (setting [4]) was 288 nM; in assay [3], 1.4 nM. Besides, the Emax in assay [2] turned out to be 100%.
For the compound `COc1ccc2c(c1)CN([C@H]1CC[C@H](c3c[nH]c4ccc(C#N)cc43)CC1)CC2` [Example 1b, 3-[(1,4-trans)-4-(7-Methoxy-3,4-dihydro-1H-isoquinolin-2-yl)-cyclohexyl]-1H-indole-5-carbonitrile], in assay [1] ([3H]8-OH-DPAT), the inhibition at 1 µM turned out to be 48%.
Still for that read-out and setting: under `COc1ccc2c(c1)CCN([C@H]1CC[C@@H](c3c[nH]c4ccc(C#N)cc43)CC1)C2` [Example 3a, 3-[(1,4-cis)-4-(6-Methoxy-3,4-dihydro-1H-isoquinolin-2-yl)-cyclohexyl]-1H-indole-5-carbonitrile] stands 21%; under `COc1cccc2c1CN([C@H]1CC[C@@H](c3c[nH]c4ccc(C#N)cc43)CC1)CC2` [Example 2a, 3-[(1,4-cis)-4-(8-Methoxy-3,4-dihydro-1H-isoquinolin-2-yl)-cyclohexyl]-1H-indole-5-carbonitrile], 14%.
Turning to `COc1cccc2c1CCN([C@H]1CC[C@H](c3c[nH]c4ccc(C#N)cc43)CC1)C2` [Example 4b, 3-[(1,4-trans)-4-(5-Methoxy-3,4-dihydro-1H-isoquinolin-2-yl)-cyclohexyl]-1H-indole-5-carbonitrile], the inhibition at 1 µM in assay [1] ([3H]8-OH-DPAT) is 47%. Besides, the Emax in assay [2] was 33%.
